US20250332143A1, “COMPOSITION COMPRISING ALOX5 INHIBITOR FOR PREVENTING OR TREATING SARCOPENIA” (PLUTO Inc., priority 2022, published 2025)

Experiments:
[1] = tested on: Dex-treated C2C12 myotubes; test: SUNSET assay of protein synthesis in Dex-treated myotubes; format: cell-based, mouse
Method: C2C12 murine skeletal muscle myoblasts were obtained from Koram Biotech (Republic of Korea). The cells were maintained in DMEM growth medium supplemented with 10% FBS, 1% penicillin, and streptomycin. When myoblasts proliferated to approximately 90%, they were differentiated into muscle fibers by treating them with DMEM differentiation medium supplemented with 2% HS, 1% penicillin, and streptomycin for 96 hours. Differentiated muscle fibers were treated with 10 μM Dex for 24 hours to induce sarcopenia. To evaluate the degree of differentiation of muscle cells, differentiating myoblasts were treated with the corresponding compound in differentiation medium for 24 or 48 hours. The concentration of intracellular protein was measured using the Bradford assay (Bio-Rad, USA, CA), and electrophoresis was performed by loading on 10% and 12% polyacrylamide gels. Afterwards, the separated proteins were transferred to a PVDF membrane, and the primary antibody used was diluted 1:1000 in TBS-T containing 5% skim milk and incubated overnight at 4° C. Secondary antibodies were diluted 1:2000 and incubated for 35 minutes at room temperature (RT). Band intensity was measured using ImageJ 1.52 software (National Institutes of Health, USA), and intracellular protein was normalized to α-tubulin.

[2] = tested on: Dex-treated C57BL/6J mice; test: Dexamethasone-induced sarcopenia mouse model; format: in vivo
Method: For quantitative real-time PCR, transcript levels of genes of interest were analyzed using the StepOnePlus real-time PCR system (Applied Biosystems, UK). Total RNA was reverse transcribed to prepare cDNA using AccuPower® RT PreMix (Bioneer Corporation). The obtained cDNA was subjected to real-time PCR according to the manufacturer's instructions with the following changes. PCR was performed in triplicate in a total volume of 20 μL 2× Power SYBR Green PCR Master Mix (Enzynomics, Republic of Korea) containing 200 nM (final concentration) of each specific primer and 1 μL of cDNA synthesized from 1 μg of total RNA. PCR amplification consisted of incubating the mixture at 95° C. for 10 minutes, followed by 40 cycles of denaturation, annealing, and extension. Denaturation was performed at 95° C. for 15 s, annealing was performed at 60° C. for 1 min, and extension was performed at 72° C. for 20 s with fluorescence detection at 72° C. after each cycle. After the final cycle, melting point analysis of all samples was performed within the range of 60 to 95° C. using continuous fluorescence detection. Specific cDNA samples were included in each run and used as reference material for comparison between runs. The expression level of GAPDH was used to calculate and normalize the expression levels of all other genes. Results were expressed as relative expression levels for each gene. The synthesized cDNA was amplified by quantitative real-time PCR (qRT-PCR) or standard PCR.
An LTB4 ELISA kit was purchased from MyBioSource (CA, USA). The concentrations of LTB4 in skeletal muscles and cell lysates were measured by the enzyme-linked […] method according to the manufacturer's instructions. Samples (100 μL) were maintained at room temperature (RT) for 1 hour in 96 wells with polyclonal LTB4 antibody. Afterwards, an enzymatic reaction was performed to stop the process, and the absorbance was measured at 405 nm.
8. Dexamethasone-Induced Sarcopenia Mouse Model 12-week-old male C57BL/6J mice were divided into 3 groups of 5 each and treated with drugs as follows: 1) PBS with 5% DMSO and 5% Tween 80 (Vehicle group); 2) 15 mg/kg of Dexamethasone (at a concentration of 15 mg/kg, in PBS containing 5% DMSO and 5% Tween 80) (Dexamethasone group); and 3) 10 mg/kg of malotilate (at a concentration of 10 mg/kg, in PBS containing 15 mg/kg Dexamethasone, 5% DMSO, and 5% Tween 80) (Malotilate group). Those were injected intraperitoneally (solution volume=200 μL) for 2 weeks. Afterwards, the muscle function and conditions of the mice were analyzed.
Grip strength was measured with the BIO-GS3 grip strength test meter (Bioseb, FL, USA). Grip strength was measured by placing the mouse on a grid and gently pulling it back with all four paws until the mouse fell off the grid. The trials were conducted with a time interval of 30 seconds, and the largest value among the three trials was selected as the representative muscle strength.
Muscle fatigue was measured from two different models using Rotarod (Ugo Basile, Italy). One is a constant speed model that measures how long movement can be continued on a cylinder rotating at a constant speed, and the other model is an acceleration model that measures how fast the mouse can continue movement when the speed of the cylinder increases at regular intervals. Mice were trained to adapt from 5 rpm to 15 rpm one day before measurement in the above two models.
Before sacrifice, mice were anesthetized by intraperitoneally administering 22 mg/kg Ketamine (Yuhan, Republic of Korea) and 10 mg/kg xylazine (Bayer, Republic of Korea) by IP injection, and then samples were collected. Quadriceps, gastrocnemius, tibialis anterior and soleus muscles were sampled and their weights were measured. The muscles sampled for immunohistostaining were cultured overnight at 4° C. with 4% paraformaldehyde, fixed, embedded in paraffin solution, and stored at −80° C. […]

human myotubes = test: Dexamethasone-induced atrophy of human skeletal myotubes, H&E, diameter; format: cell-based; conditions: dexamethasone co-treatment
Method: Human-derived myoblasts were purchased from Thermo-Fisher Scientific (USA). Myoblasts were thawed using a water bath, centrifuged at 180 g for 5 min at room temperature, and washed with 20 mL DM. Myoblasts were then resuspended in DM and seeded in a 12-well plate at a density of 4.8×10^4 cells/well. After 48 hours, myoblasts were treated with compounds of interest for 24 hours. Myotubes were stained with H&E. After light microscopy analysis of DIC captured images (Olympus CKX41), myotubes were measured using ImageJ 1.48 software (National Institutes of Health, USA).

[3] = Dex-treated mice, 10 mg/kg intraperitoneally, 2 weeks
[4] = Dex-treated mice, quadriceps, mRNA

CC(C)OC(=O)C(C(=O)OC(C)C)=C1SC=CS1 [malotilate, Malotilate]
total protein synthesis [1]: restored
grip strength [2, 3]: significantly increased
latency to fall, rotarod [2, 3]: significantly increased
maximum velocity, rotarod [2, 3]: significantly increased
quadriceps muscle mass [2, 3]: increased
soleus muscle mass [2, 3]: increased
LTB4 level in muscle (ELISA) ([2]; Dex-treated mice, quadriceps): lowered
average muscle fiber cross sectional area (CSA) ([2]; Dex-treated mice, quadriceps): increased
proportion of fibers with larger CSA ([2]; Dex-treated mice, quadriceps): increased
MuRF-1 expression in muscle [2, 4]: reduced
atrogin-1 expression in muscle [2, 4]: reduced
skeletal muscle atrophy ([2]; animal model of sarcopenia due to Dex treatment): inhibited
atrophy of human myotubes (human myotubes; 24 hours): can prevent atrophy
mean myotube diameter (human myotubes; human myotubes): increased
proportion of myotubes of larger size (human myotubes; human myotubes): greater proportion
